Columns and labels:
Assay type in all cases: functional
A498 = assay: Cytotoxicity against Homo sapiens (human) A498 cells after 48 hr by sulforhodamine B assay; details: A498, 48 h
786-0 = assay: Cytotoxicity against Homo sapiens (human) 786-0 cells after 48 hr by sulforhodamine B assay; details: 786-0, 48 h
OVCAR-5 = assay: Cytotoxicity against Homo sapiens (human) OVCAR5 cells after 48 hr by sulforhodamine B assay; details: OVCAR-5, 48 h
IGROV-1 = assay: Cytotoxicity against Homo sapiens (human) IGROV1 cells after 48 hr by sulforhodamine B assay; details: IGROV-1, 48 h
OVCAR-3 = assay: Cytotoxicity against Homo sapiens (human) OVCAR3 cells after 48 hr by sulforhodamine B assay; details: OVCAR-3, 48 h
UACC-257 = assay: Cytotoxicity against Homo sapiens (human) UACC257 cells after 48 hr by sulforhodamine B assay; details: UACC-257, 48 h
SK-MEL-2 = assay: Cytotoxicity against Homo sapiens (human) SK-MEL-2 cells after 48 hr by sulforhodamine B assay; details: SK-MEL-2, 48 h
M14 = assay: Cytotoxicity against Homo sapiens (human) M14 cells after 48 hr by sulforhodamine B assay; details: M14, 48 h
U-251 = assay: Cytotoxicity against Homo sapiens (human) U251 cells after 48 hr by sulforhodamine B assay; details: U-251, 48 h
T47D = assay: Cytotoxicity against Homo sapiens (human) T47D cells after 48 hr by sulforhodamine B assay
MDA-MB-435 = assay: Cytotoxicity against Homo sapiens (human) MDA-MB-435 cells after 48 hr by sulforhodamine B assay; details: MDA-MB-435, 48 h
Hs-578T = assay: Cytotoxicity against Homo sapiens (human) Hs 578T cells after 48 hr by sulforhodamine B assay
[1] = Cytotoxicity against Homo sapiens (human) NCI-ADR-RES cells after 48 hr by sulforhodamine B assay
UO-31 = assay: Cytotoxicity against Homo sapiens (human) UO31 cells after 48 hr by sulforhodamine B assay; details: UO-31, 48 h
TK-10 = assay: Cytotoxicity against Homo sapiens (human) TK10 cells after 48 hr by sulforhodamine B assay; details: TK-10, 48 h
CAKI-1 = assay: Cytotoxicity against Homo sapiens (human) Caki1 cells after 48 hr by sulforhodamine B assay; details: CAKI-1, 48 h
SF-295 = assay: Cytotoxicity against Homo sapiens (human) SF295 cells after 48 hr by sulforhodamine B assay; details: SF-295, 48 h
SW-620 = assay: Cytotoxicity against Homo sapiens (human) SW620 cells after 48 hr by sulforhodamine B assay; details: SW-620, 48 h
HCC 2998 = assay: Cytotoxicity against Homo sapiens (human) HCC2998 cells after 48 hr by sulforhodamine B assay; details: HCC 2998, 48 h
NCI-H460 = assay: Cytotoxicity against Homo sapiens (human) NCI-H460 cells after 48 hr by sulforhodamine B assay; details: NCI-H460, 48 h
NCI-H322M = assay: Cytotoxicity against Homo sapiens (human) NCI-H322M cells after 48 hr by sulforhodamine B assay
NCI-H226 = assay: Cytotoxicity against Homo sapiens (human) NCI-H226 cells after 48 hr by sulforhodamine B assay; details: NCI-H226, 48 h
HOP-92 = assay: Cytotoxicity against Homo sapiens (human) HOP92 cells after 48 hr by sulforhodamine B assay; details: HOP-92, 48 h
A549 = assay: Cytotoxicity against Homo sapiens (human) A549 cells after 48 hr by sulforhodamine B assay; details: A549, 48 h
MCF7 = assay: Cytotoxicity against Homo sapiens (human) MCF7 cells assessed as cell growth at 10^-4 M after 48 hr by Alamar blue assay; details: MCF7, 48 h, read-out: Activity
[2] = read-out: LC50 (the source's name)

ClCc1ccc(Cn2cnc3ncnc(Cl)c32)cc1
GI50 (A498): 1.81 µM | LC50 (lethal concentration, 50% cell kill) (A498): 6.3 µM | TGI (A498): 3.38 µM | GI50 (786-0): 1.69 µM | LC50 (786-0): 5.49 µM | TGI (786-0): 3.01 µM | GI50 (OVCAR-5): 6.3 µM | TGI (OVCAR-5): 19.5 µM | CC50 (OVCAR-5; [2]): 45.7 µM | GI50 (IGROV-1): 7.58 µM | LC50 (IGROV-1): > 100 µM | TGI (IGROV-1): 30.9 µM | GI50 (OVCAR-3): 1.81 µM | LC50 (OVCAR-3): 6.3 µM | TGI (OVCAR-3): 3.38 µM | GI50 (UACC-257): 1.58 µM | LC50 (concentration killing 50% of cells) (UACC-257): 7.76 µM | TGI (UACC-257): 3.46 µM | GI50 (SK-MEL-2): 6.3 µM | LC50 (concentration killing 50% of cells) (SK-MEL-2): > 100 µM | TGI (SK-MEL-2): > 100 µM | GI50 (M14): 2.75 µM | LC50 (M14): 37.1 µM | TGI (M14): 13.2 µM | GI50 (U-251): 1.09 µM | LC50 (concentration killing 50% of cells) (U-251): 4.78 µM | TGI (U-251): 2.29 µM | GI50 (T47D): 1.28 µM | LC50 (T47D): 6.3 µM | TGI (T47D): 2.88 µM | GI50 (MDA-MB-435): 5.88 µM | LC50 (MDA-MB-435): 46.8 µM | TGI (MDA-MB-435): 19.1 µM | GI50 (Hs-578T): 1.73 µM | LC50 (Hs-578T): > 100 µM | TGI (Hs-578T): 4.26 µM | GI50 [1]: 1.81 µM | LC50 (concentration killing 50% of cells) [1]: 15.5 µM | TGI [1]: 4.67 µM | GI50 (UO-31): 4.78 µM | LC50 (concentration causing 50% net cell kill) (UO-31): > 100 µM | TGI (UO-31): 66.1 µM | GI50 (TK-10): 1.47 µM | TGI (TK-10): 2.95 µM | CC50 (TK-10; [2]): 5.75 µM | GI50 (CAKI-1): 1.99 µM | TGI (CAKI-1): 4.46 µM | CC50 (CAKI-1; [2]): 9.77 µM | GI50 (SF-295): 2.04 µM | TGI (SF-295): 5.01 µM | CC50 (SF-295; [2]): 17 µM | GI50 (SW-620): 2.57 µM | TGI (SW-620): 7.24 µM | CC50 (SW-620; [2]): 32.4 µM | GI50 (HCC 2998): 1.41 µM | TGI (HCC 2998): 2.88 µM | CC50 (HCC 2998; [2]): 5.75 µM | GI50 (NCI-H460): 1.77 µM | TGI (NCI-H460): 4.26 µM | CC50 (NCI-H460; [2]): 17.4 µM | GI50 (NCI-H322M): 1.62 µM | TGI (NCI-H322M): 3.01 µM | CC50 (NCI-H322M; [2]): 5.62 µM | GI50 (NCI-H226): 3.01 µM | TGI (NCI-H226): 12 µM | CC50 (NCI-H226; [2]): 37.1 µM | GI50 (HOP-92): 1.17 µM | TGI (HOP-92): 2.51 µM | CC50 (HOP-92; [2]): 5.49 µM | GI50 (A549): 1.81 µM | TGI (A549): 4.16 µM | CC50 (A549; [2]): 9.33 µM | growth at 100 µM (MCF7): 23%
